Patent US9006487B2, “Amine-containing lipids and uses thereof” (Massachusetts Institute of Technology, priority 2005, dated 2015)

Test system: renilla and firefly luciferases
Assay: siRNA delivery: reporter-protein (renilla luciferase) knockdown relative to Lipofectamine 2000, firefly luciferase as viability control
Assay type: cell-based
Details: lipid/RNA 2.5 w/w; 50 ng of siRNA per well
Procedure: Reporter-protein knockdown achieved by the top transfecting lipids relative to Lipofectamine™ 2000 (where negative values indicate improved knockdown). The assay accounts for toxicity, monitoring expression of both renilla and firefly luciferases, where the latter serves as viability control. For each lipid, 50 ng of siRNA was added per well at specific lipid/RNA w/w ratios (from top to bottom: 2.5, 5, 10, 15).

| Compound | Reporter-protein knockdown relative to Lipofectamine 2000 (negative values indicate improved knockdown) |
| --- | --- |
| CCCCCCCCCCCCCCOC(=O)CCN(CCOCCO)CCC(=O)OCCCCCCCCCCCCCC [LF31] | 50.09 |
| CCCCCCCCCCCCCCCOC(=O)CCN(CCOCCO)CCC(=O)OCCCCCCCCCCCCCCC [LG31] | 41 |
| CCCCCCCCCCCCCCCOC(=O)CCN(CCCCCO)CCC(=O)OCCCCCCCCCCCCCCC [LG32] | 58.1 |
| CCCCCCCCCCCCCCCOC(=O)CCN(CCC(=O)OCCCCCCCCCCCCCCC)CCC1CCCN1C (stereo not shown) [LG77] | 71.01 |

Same assay, conditions: lipid/RNA 5 w/w; 50 ng of siRNA per well

| Compound | Reporter-protein knockdown relative to Lipofectamine 2000 (negative values indicate improved knockdown) |
| --- | --- |
| CCCCCCCCCCCCCCOC(=O)CCN(CCOCCO)CCC(=O)OCCCCCCCCCCCCCC [LF31] | 11.94 |
| CCCCCCCCCCCCCCCOC(=O)CCN(CCOCCO)CCC(=O)OCCCCCCCCCCCCCCC [LG31] | 21.06 |
| CCCCCCCCCCCCCCCOC(=O)CCN(CCCCCO)CCC(=O)OCCCCCCCCCCCCCCC [LG32] | 41.51 |
| CCCCCCCCCCCCCCCOC(=O)CCN(CCC(=O)OCCCCCCCCCCCCCCC)CCC1CCCN1C (stereo not shown) [LG77] | −0.05414 |

Same assay, conditions: lipid/RNA 10 w/w; 50 ng of siRNA per well

| Compound | Reporter-protein knockdown relative to Lipofectamine 2000 (negative values indicate improved knockdown) |
| --- | --- |
| CCCCCCCCCCCCCCOC(=O)CCN(CCOCCO)CCC(=O)OCCCCCCCCCCCCCC [LF31] | −0.8252 |
| CCCCCCCCCCCCCCCOC(=O)CCN(CCOCCO)CCC(=O)OCCCCCCCCCCCCCCC [LG31] | −2.714 |
| CCCCCCCCCCCCCCCOC(=O)CCN(CCCCCO)CCC(=O)OCCCCCCCCCCCCCCC [LG32] | 44.71 |
| CCCCCCCCCCCCCCCOC(=O)CCN(CCC(=O)OCCCCCCCCCCCCCCC)CCC1CCCN1C (stereo not shown) [LG77] | −7.721 |

Same assay, conditions: lipid/RNA 15 w/w; 50 ng of siRNA per well

| Compound | Reporter-protein knockdown relative to Lipofectamine 2000 (negative values indicate improved knockdown) |
| --- | --- |
| CCCCCCCCCCCCCCOC(=O)CCN(CCOCCO)CCC(=O)OCCCCCCCCCCCCCC [LF31] | −10.5366 |
| CCCCCCCCCCCCCCCOC(=O)CCN(CCOCCO)CCC(=O)OCCCCCCCCCCCCCCC [LG31] | −5.764 |
| CCCCCCCCCCCCCCCOC(=O)CCN(CCCCCO)CCC(=O)OCCCCCCCCCCCCCCC [LG32] | −13.6483 |
| CCCCCCCCCCCCCCCOC(=O)CCN(CCC(=O)OCCCCCCCCCCCCCCC)CCC1CCCN1C (stereo not shown) [LG77] | −21.3897 |

Test system: cos-7 cells
Assay: DNA transfection: luciferase expression relative to Lipofectamine 2000
Assay type: cell-based
Details: 10 w/w lipid to DNA; 300 ng DNA per well; luciferase assay after 48 hours
How it was run: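 Lipid/DNA complexes, 300 ng luciferase DNA per well at 2.5-25 w/w lipid:DNA, were formed in sodium acetate/Optimem and added to overnight-seeded cos-7 cells. Luciferase was measured by Bright-Glo luminescence after 48 hours and quantified against an enzyme standard curve. Values are expressed as % of Lipofectamine 2000 at 2.5 w/w.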

| Compound | % of the luciferase activity obtained from the use of Lipofectamine 2000 [%] |
| --- | --- |
| CCCCCCCCCCCCCCCOC(=O)CCN(CCC(=O)OCCCCCCCCCCCCCCC)CCC1CCCN1C (stereo not shown) [LG77] | 43.5 |

Same assay, conditions: 15 w/w lipid to DNA; 300 ng DNA per well; luciferase assay after 48 hours

| Compound | % of the luciferase activity obtained from the use of Lipofectamine 2000 [%] |
| --- | --- |
| CCCCCCCCCCCCCCCOC(=O)CCN(CCC(=O)OCCCCCCCCCCCCCCC)CCC1CCCN1C (stereo not shown) [LG77] | 34.0 |

Same assay, conditions: lipid/DNA 2.5 w/w; 300 ng Luciferase DNA per well; luciferase assay after 48 hours

| Compound | Luciferase expression as a percentage of that achieved using Lipofectamine 2000 [%] |
| --- | --- |
| CCCCCCCCCCCCCCOC(=O)CCN(CCOCCO)CCC(=O)OCCCCCCCCCCCCCC [LF31] | 64.1 |
| CCCCCCCCCCCCCCCOC(=O)CCN(CCOCCO)CCC(=O)OCCCCCCCCCCCCCCC [LG31] | 19.6 |
| CCCCCCCCCCCCCCCOC(=O)CCN(CCCCCO)CCC(=O)OCCCCCCCCCCCCCCC [LG32] | 0.2 |
| CCCCCCCCCCCCCCCOC(=O)CCN(CCC(=O)OCCCCCCCCCCCCCCC)CCC1CCCN1C (stereo not shown) [LG77] | 0.0 |

Same assay, conditions: lipid/DNA 2.5 w/w; 300 ng of DNA per well

| Compound | luciferase expression (second part of table, values relative to LIPO2000) |
| --- | --- |
| CCCCCCCCCCCCCCOC(=O)CCN(CCOCCO)CCC(=O)OCCCCCCCCCCCCCC [LF31] | 64.1 |
| CCCCCCCCCCCCCCCOC(=O)CCN(CCOCCO)CCC(=O)OCCCCCCCCCCCCCCC [LG31] | 19.6 |

Same assay, conditions: lipid/DNA 5 w/w; 300 ng Luciferase DNA per well; luciferase assay after 48 hours

| Compound | Luciferase expression as a percentage of that achieved using Lipofectamine 2000 [%] |
| --- | --- |
| CCCCCCCCCCCCCCOC(=O)CCN(CCOCCO)CCC(=O)OCCCCCCCCCCCCCC [LF31] | 78.7 |
| CCCCCCCCCCCCCCCOC(=O)CCN(CCOCCO)CCC(=O)OCCCCCCCCCCCCCCC [LG31] | 27.6 |
| CCCCCCCCCCCCCCCOC(=O)CCN(CCCCCO)CCC(=O)OCCCCCCCCCCCCCCC [LG32] | 10.2 |
| CCCCCCCCCCCCCCCOC(=O)CCN(CCC(=O)OCCCCCCCCCCCCCCC)CCC1CCCN1C (stereo not shown) [LG77] | 0.0 |

Same assay, conditions: lipid/DNA 5 w/w; 300 ng of DNA per well

| Compound | luciferase expression (second part of table, values relative to LIPO2000) |
| --- | --- |
| CCCCCCCCCCCCCCOC(=O)CCN(CCOCCO)CCC(=O)OCCCCCCCCCCCCCC [LF31] | 78.7 |
| CCCCCCCCCCCCCCCOC(=O)CCN(CCOCCO)CCC(=O)OCCCCCCCCCCCCCCC [LG31] | 27.6 |

Same assay, conditions: lipid/DNA 10 w/w; 300 ng Luciferase DNA per well; luciferase assay after 48 hours

| Compound | Luciferase expression as a percentage of that achieved using Lipofectamine 2000 [%] |
| --- | --- |
| CCCCCCCCCCCCCCOC(=O)CCN(CCOCCO)CCC(=O)OCCCCCCCCCCCCCC [LF31] | 13.4 |
| CCCCCCCCCCCCCCCOC(=O)CCN(CCOCCO)CCC(=O)OCCCCCCCCCCCCCCC [LG31] | 34.0 |
| CCCCCCCCCCCCCCCOC(=O)CCN(CCCCCO)CCC(=O)OCCCCCCCCCCCCCCC [LG32] | 1.0 |

Same assay, conditions: lipid/DNA 10 w/w; 300 ng of DNA per well

| Compound | luciferase expression (second part of table, values relative to LIPO2000) |
| --- | --- |
| CCCCCCCCCCCCCCOC(=O)CCN(CCOCCO)CCC(=O)OCCCCCCCCCCCCCC [LF31] | 13.4 |
| CCCCCCCCCCCCCCCOC(=O)CCN(CCOCCO)CCC(=O)OCCCCCCCCCCCCCCC [LG31] | 34.0 |

Same assay, conditions: lipid/DNA 15 w/w; 300 ng Luciferase DNA per well; luciferase assay after 48 hours

| Compound | Luciferase expression as a percentage of that achieved using Lipofectamine 2000 [%] |
| --- | --- |
| CCCCCCCCCCCCCCOC(=O)CCN(CCOCCO)CCC(=O)OCCCCCCCCCCCCCC [LF31] | 69.5 |
| CCCCCCCCCCCCCCCOC(=O)CCN(CCOCCO)CCC(=O)OCCCCCCCCCCCCCCC [LG31] | 8.5 |
| CCCCCCCCCCCCCCCOC(=O)CCN(CCCCCO)CCC(=O)OCCCCCCCCCCCCCCC [LG32] | 0.7 |

Same assay, conditions: lipid/DNA 15 w/w; 300 ng of DNA per well

| Compound | luciferase expression (second part of table, values relative to LIPO2000) |
| --- | --- |
| CCCCCCCCCCCCCCOC(=O)CCN(CCOCCO)CCC(=O)OCCCCCCCCCCCCCC [LF31] | 69.5 |
| CCCCCCCCCCCCCCCOC(=O)CCN(CCOCCO)CCC(=O)OCCCCCCCCCCCCCCC [LG31] | 8.5 |

Same assay, conditions: lipid/DNA 20 w/w; 300 ng Luciferase DNA per well; luciferase assay after 48 hours

| Compound | Luciferase expression as a percentage of that achieved using Lipofectamine 2000 [%] |
| --- | --- |
| CCCCCCCCCCCCCCOC(=O)CCN(CCOCCO)CCC(=O)OCCCCCCCCCCCCCC [LF31] | 97.3 |
| CCCCCCCCCCCCCCCOC(=O)CCN(CCOCCO)CCC(=O)OCCCCCCCCCCCCCCC [LG31] | 14.3 |
| CCCCCCCCCCCCCCCOC(=O)CCN(CCCCCO)CCC(=O)OCCCCCCCCCCCCCCC [LG32] | 0.4 |
| CCCCCCCCCCCCCCCOC(=O)CCN(CCC(=O)OCCCCCCCCCCCCCCC)CCC1CCCN1C (stereo not shown) [LG77] | 0.0 |

Same assay, conditions: lipid/DNA 20 w/w; 300 ng of DNA per well

| Compound | luciferase expression (second part of table, values relative to LIPO2000) |
| --- | --- |
| CCCCCCCCCCCCCCOC(=O)CCN(CCOCCO)CCC(=O)OCCCCCCCCCCCCCC [LF31] | 97.3 |
| CCCCCCCCCCCCCCCOC(=O)CCN(CCOCCO)CCC(=O)OCCCCCCCCCCCCCCC [LG31] | 14.3 |

Same assay, conditions: lipid/DNA 25 w/w; 300 ng Luciferase DNA per well; luciferase assay after 48 hours

| Compound | Luciferase expression as a percentage of that achieved using Lipofectamine 2000 [%] |
| --- | --- |
| CCCCCCCCCCCCCCOC(=O)CCN(CCOCCO)CCC(=O)OCCCCCCCCCCCCCC [LF31] | 266.8 |
| CCCCCCCCCCCCCCCOC(=O)CCN(CCOCCO)CCC(=O)OCCCCCCCCCCCCCCC [LG31] | 94.0 |
| CCCCCCCCCCCCCCCOC(=O)CCN(CCCCCO)CCC(=O)OCCCCCCCCCCCCCCC [LG32] | 0.7 |
| CCCCCCCCCCCCCCCOC(=O)CCN(CCC(=O)OCCCCCCCCCCCCCCC)CCC1CCCN1C (stereo not shown) [LG77] | 0.0 |

Same assay, conditions: lipid/DNA 25 w/w; 300 ng of DNA per well

| Compound | luciferase expression (second part of table, values relative to LIPO2000) |
| --- | --- |
| CCCCCCCCCCCCCCOC(=O)CCN(CCOCCO)CCC(=O)OCCCCCCCCCCCCCC [LF31] | 266.8 |
| CCCCCCCCCCCCCCCOC(=O)CCN(CCOCCO)CCC(=O)OCCCCCCCCCCCCCCC [LG31] | 94.0 |
